Counter-ions that a name gives are not always drawn.
Tests used:
[1] = human, in vivo, po
Description: All procedures were done in accordance with the University of South Florida Institutional Review Board (IRB) guidelines. BHB salts and MCT oil were given to human subjects as a ketogenic food supplement and blood measurements of BHB and/or glucose were taken at predetermined time points.
To determine the time course of ketosis, the subjects were orally given the test substances of a BHB salt solution (450 mL; 4%, approximately 18 g), an MCT oil (30 mL, approximately 30 g), or a combination of the a BHB salt solution and an MCT oil. Blood concentrations of glucose and BHB were determined utilizing a commercially available glucose/ketone monitoring system (Precision Xtra® blood glucose and ketone meter) at defined time points (0, 15, 30, 60, 120, 240 and 480 minutes following ingestion of the test substances).
The subject was administered a BHB salt solution containing 4% Na^+/K^+ BHB salts in solution, an MCT oil, or a combination of the 4% Na^+/K^+ BHB salts and the MCT oil. At 15, 30, 60, 120, 240 and 480 minutes after administration, blood was drawn. The subject returned on days 2 and 3 for additional supplements, with blood taken as on day 1. Levels of BHB in the blood were determined as described above.

[2] = Blood βHB levels of a fasted 70 kg subject after oral administration; assay type: in vivo, human; set-up: unit: mM; details: for Blood βHB levels Mean: 70 kg male, mean of 3 days; for Blood βHB levels Day 1 / Blood βHB levels Day 2 / Blood βHB levels Day 3: 70 kg person
Description: (§1) To determine the time course of ketosis, the subjects were orally given the test substances of a BHB salt solution (450 mL; 4%, approximately 18 g), an MCT oil (30 mL, approximately 30 g), or a combination of the a BHB salt solution and an MCT oil. Blood concentrations of glucose and BHB were determined utilizing a commercially available glucose/ketone monitoring system (Precision Xtra® blood glucose and ketone meter) at defined time points (0, 15, 30, 60, 120, 240 and 480 minutes following ingestion of the test substances). Subject (70 kg) was instructed to fast for three days, and was given a single daily oral administration of either ßHB salts (4% solution containing 11 grams sodium ßHB and 7.1 grams potassium ßHB), MCT oil or ßHB salts+MCT oil at 15, 30, 60, 120, 240 and 480 minutes on 3 consecutive days. At 15, 30, 60, 120, 240 and 480 minutes after administration, blood was drawn. The subject returned on days 2 and 3 for additional supplements, with blood taken as on day 1, as in Example 1.

[3] = Blood glucose levels of a fasted 70 kg subject after oral administration; assay type: in vivo, human; details: for Blood glucose levels Mean: 70 kg male, mean of 3 days; for Blood glucose levels Day 1 / Blood glucose levels Day 2 / Blood glucose levels Day 3: 70 kg person
Description: as §1, with “1. […] Blood glucose levels were determined as described above.” for “1.”

[4] = Blood glucose levels in rats after ketone supplementation; assay type: in vivo, Sprague-Dawley rats
Excerpt: (§2) Subject rats (n=74), 275-325 grams, were randomly assigned to a control group (no supplementation) or to one of three ketone precursor groups: medium chain triglyceride (MCT) oil (MO), mineral (Na^+/K+) salt of β-hydroxybutyrate (βHB) (SO), or SO+MO 1:1 combination (SM). The ketone mineral salt was developed and synthesized by Dr. Patrick Arnold from Prototype Nutrition. Pure pharmaceutical grade MCT oil was purchased from Now Foods (Bloomingdale, Ill.). SM was mixed at a 1:1 ratio.
(§3) Rats were supplemented with medium chain triglyceride (MCT) oil (MO), or a mineral (Na+/K+) salt of β-hydroxybutyrate (βHB) (SO), or SO+MO 1:1 mixture (SM) and force fed a daily at a dose of 5 g/kg body weight on days 1-14, followed by a 10 g/kg dose on days 15-28 rats Supplementation was given between 10 am and […] daily to eliminate variance based on regular eating patterns. Diets were not restricted for this study.
Once a week, animals were fasted for 4 hours prior to intragastric gavage of the appropriate ketone supplement. The four hour food restriction was used to eliminate normal variance in blood glucose and ketone levels due to food consumption. Whole blood samples (10 μL) were acquired from the saphenous vein of the subjects for analysis of glucose and βHB utilizing the commercially available glucose and ketone monitoring system Precision Xtra™ (Abbott Laboratories, Abbott Park, Ill.) at time intervals of 0, 0.5, 1, 4, 8, and 12 hours after ketone precursor supplements were administered, or until βHB returned to baseline. On Day 0 (Week 0) and Day 28 (Week 4), whole blood samples (10 μL) were acquired for analysis of total cholesterol, HDL, and triglycerides for a lipid panel utilizing the commercially available home cholesterol analyzer Cardio Chek™ (Polymer Technology Systems, Inc., Indianapolis, Ind.) at time 0. Animals were weighed once per week to maintain accurate dosage using the Mittler Toledo SB 16001 scales.

[5] = set-up: species or system Sprague-Dawley rats; details: rat, in vivo
Excerpt: as §2, §3
Once a week, animals were fasted for 4 hours prior to intragastric gavage of the appropriate ketone supplement. The four hour food restriction was used to eliminate normal variance in blood glucose and ketone levels due to food consumption. […]

[6] = Change of body weight in rats during 28 days of ketone supplementation; assay type: in vivo, Sprague-Dawley rats; details: daily for 28 days
Description: Diets were not restricted for this study. Once a week, animals were fasted for 4 hours prior to intragastric gavage of the appropriate ketone supplement. The four hour food restriction was used to eliminate normal variance in blood glucose and ketone levels due to food consumption. […] Animals were weighed once per week to maintain accurate dosage using the […] Toledo SB 16001 scales. Rats were administered SO, MO, or SM daily for 28 days as described above. Each week the animals were weighed. […] The control animals continued to gain weight throughout the month-long study. In comparison, the ketone supplement treatment groups all gained less weight. […] A key finding of this study is that the SM group was able to limit weight gain in an unexpected way as the amounts of BHB and MCT when combined were much lower than the amounts of those ingredients used in the SO and MO treatment groups. This effect on body weight gain is likely due to appetite suppression caused by the supplements, rather than a reduced intake of the supplement itself, as force feeding controlled for dosing.

CC(O)CC(=O)O (stereo not drawn) [BHB salt (450 mL), β-hydroxybutyrate]
Elevation in BHB levels (in words) [1]: higher elevation in BHB levels than MCT oil alone
Blood βHB levels Mean ([2]; time 0 minutes): 0.87
Blood βHB levels Mean ([2]; time 30 minutes): 1.73
Blood βHB levels Mean ([2]; time 60 minutes): 2.77
Blood βHB levels Mean ([2]; time 120 minutes): 1.73
Blood βHB levels Mean ([2]; time 240 minutes): 1.53
Blood βHB levels Mean ([2]; time 480 minutes): 1.53
Blood βHB levels Day 1 ([2]; time 0 minutes): 0.2
Blood βHB levels Day 2 ([2]; time 0 minutes): 0.6
Blood βHB levels Day 3 ([2]; time 0 minutes): 1.8
Blood βHB levels Day 1 ([2]; time 30 minutes): 0.7
Blood βHB levels Day 2 ([2]; time 30 minutes): 1.8
Blood βHB levels Day 3 ([2]; time 30 minutes): 2.7
Blood βHB levels Day 1 ([2]; time 60 minutes): 1.1
Blood βHB levels Day 2 ([2]; time 60 minutes): 2.4
Blood βHB levels Day 3 ([2]; time 60 minutes): 4.8
Blood βHB levels Day 1 ([2]; time 120 minutes): 0.3
Blood βHB levels Day 2 ([2]; time 120 minutes): 1.6
Blood βHB levels Day 3 ([2]; time 120 minutes): 3.3
Blood βHB levels Day 1 ([2]; time 240 minutes): 0.4
Blood βHB levels Day 2 ([2]; time 240 minutes): 1.2
Blood βHB levels Day 3 ([2]; time 240 minutes): 3
Blood βHB levels Day 1 ([2]; time 480 minutes): 0.6
Blood βHB levels Day 2 ([2]; time 480 minutes): 1.6
Blood βHB levels Day 3 ([2]; time 480 minutes): 2.4
Blood glucose levels Mean ([3]; time 0 minutes): 90.00
Blood glucose levels Mean ([3]; time 30 minutes): 87.00
Blood glucose levels Mean ([3]; time 60 minutes): 81.00
Blood glucose levels Mean ([3]; time 120 minutes): 77.33
Blood glucose levels Mean ([3]; time 240 minutes): 77.33
Blood glucose levels Mean ([3]; time 480 minutes): 74.67
Blood glucose levels Day 1 ([3]; time 0 minutes): 100
Blood glucose levels Day 2 ([3]; time 0 minutes): 90
Blood glucose levels Day 3 ([3]; time 0 minutes): 80
Blood glucose levels Day 1 ([3]; time 30 minutes): 95
Blood glucose levels Day 2 ([3]; time 30 minutes): 95
Blood glucose levels Day 3 ([3]; time 30 minutes): 71
Blood glucose levels Day 1 ([3]; time 60 minutes): 85
Blood glucose levels Day 2 ([3]; time 60 minutes): 90
Blood glucose levels Day 3 ([3]; time 60 minutes): 68
Blood glucose levels Day 1 ([3]; time 120 minutes): 82
Blood glucose levels Day 2 ([3]; time 120 minutes): 85
Blood glucose levels Day 3 ([3]; time 120 minutes): 65
Blood glucose levels Day 1 ([3]; time 240 minutes): 80
Blood glucose levels Day 2 ([3]; time 240 minutes): 84
Blood glucose levels Day 3 ([3]; time 240 minutes): 68
Blood glucose levels Day 1 ([3]; time 480 minutes): 76
Blood glucose levels Day 2 ([3]; time 480 minutes): 80
Blood glucose levels Day 3 ([3]; time 480 minutes): 68
Blood glucose versus control (in words) ([4]; 5 g/kg, week 0): did not show any significant difference compared to control
Blood glucose versus control (in words) ([4]; 5 g/kg, week 1): began reducing glucose by 8 hours
Blood glucose versus control (in words) ([4]; 10 g/kg, week 2 onward): reduced glucose levels at 30 minutes through 8 hours
Triglyceride levels at week 4 compared with week 0 [5]: mildly elevated
Body weight gain compared to controls (in words) [6]: gained significantly less weight compared to controls

medium chain triglyceride (MCT) oil [MCT (30 mL)]
Elevation in BHB levels (in words) [1]: little elevation in BHB levels
Time of peak plasma BHB level after administration [1]: 60 min
Triglyceride levels at week 4 compared with week 0 [5]: little change

— patent publication US20200268701A1, “COMPOSITIONS AND METHODS FOR PRODUCING ELEVATED AND SUSTAINED KETOSIS” (University of South Florida, priority 2013, published 2020)
